In patent US8063043B2, “Salts of N-[6-cis-2,6-dimethylmorpholin-4-yl)pyridine-3-yl]-2-methyl-4′-(trifluoromethoxy)[1,1′-biphenyl]-3-carboxamide” (Novartis AG, priority 2008, dated 2011):
Where “and” joins values, the source holds several entries; their conditions need not be identical. Equal entries are not always repeated. Where two headings read alike, the source gives them in different places.

Key:
[1] = pH of 1% solution or suspension; type: physicochemical; conditions: In water
Description: The solutions were stirred continuously as the pH was measured.

[2] = Approximate solubility at 25° C.; conditions: thermodynamic from solid
[3] = Wistar rats, 10 mg/kg, suspension
[4] = Crystal modification after 72 hours vibration (polymorphism behavior of slurries); type: physicochemical
From the text: The slurries were filtered and the solids collected for XRPD analyses.

[5] = Solid form after stress test (XRPD/DSC); type: physicochemical
[6] = Stability: appearance color (CL); type: physicochemical
in vivo = conditions: Wistar, rat, 10 mg/kg, Wistar rats, suspension
[7] = Bulk corrosivity with stainless steel coupon; type: physicochemical; conditions: 2 day 80% r.h. with stainless steel coupon; change in the surface of the coupon
[8] = Hygroscopicity, DVS sorption/desorption isotherms; type: physicochemical; conditions: for DVS Desorp. Weight % chg. / DVS Sorp. Weight % chg.: 25° C.
Description: Sorption/desorption isotherms: Instrument, Surface Measurement System DVS-1 temperature at 25±0.5° C.

[9] = Thermogravimetry (weight loss / loss on drying); type: physicochemical; conditions: at 150° C.
[10] = Stability measured by degradation products (DP, HPLC area-%); type: physicochemical
Description: DPs are analyzed by HPLC (method see Table 3). They are calculated as area-% products. Compositions of the mixtures in mass % are as follows.
For salts in water, acetonitrile was added to dilute the 0.2% slurry to 0.1% clear solution. For salts in methanol, acetonitrile or acetonitrile/water (50:50, v/v), the corresponding solvent or solvent mixture was added to dilute the 0.2% slurry to 0.1% clear solution. For salts in 0.5% CMC, HPMC cellulose 4000 0.5%, or Tween 80, 0.8%, tetrahydrofuran and water were added to dilute the 2% slurry to 0.1% clear solution and to reach tetrahydrofuran/water 50:50 (v/v). For bulk stability samples (including the samples in excipient mixtures), acetonitrile/water (80:20, v/v) was added to make 0.1% clear solution.

[11] = individual rats, listed as Compound A Sulfate, monosulfate salt

SMILES: Cc1c(C(=O)Nc2ccc(N3C[C@@H](C)O[C@@H](C)C3)nc2)cccc1-c1ccc(OC(F)(F)F)cc1.O=S(=O)(O)O [Sulfate, mono]
- pH of 1% solution or suspension [1]: 1.45
- solubility at 1 day ([2]; 0.1N HCl, pH 1, simulated gastric fluid): 3 µg/mL
- solubility at 1 day ([2]; 2-propanol, organic solvent or mixture): 4000 µg/mL
- solubility at 1 day ([2]; acetone, organic solvent or mixture): 1700 µg/mL
- solubility at 1 day ([2]; acetonitrile, organic solvent or mixture): 1400 µg/mL
- solubility at 1 day ([2]; ethanol, organic solvent or mixture): 19700 µg/mL
- solubility at 1 day ([2]; ethyl acetate, organic solvent or mixture): 90 µg/mL
- solubility at 1 day ([2]; methanol, organic solvent or mixture): 24400 µg/mL
- solubility at 1 day ([2]; phosphate buffer, pH 6.8, aqueous buffer): 2 µg/mL
- solubility at 1 day ([2]; water): 7 µg/mL
- less exposure in-vivo than the diphosphate salt [3]: about 40%
- AUC0-24/dose [3, 11]: 2590 (ng*h/mL)/(mg/kg/day) and 2870 (ng*h/mL)/(mg/kg/day) and 3620 (ng*h/mL)/(mg/kg/day)
- Cmax [3, 11]: 1860 ng/mL and 3560 ng/mL
- Cmax/Dose [3, 11]: 190 (ng/mL)/(mg/kg/day) (2×) and 360 (ng/mL)/(mg/kg/day)
- tmax [3, 11]: 4 h and 2 h and 1 h
- Crystal modification after 72 hours vibration (DSC/XRPD/TG) ([4]; 0.1N HCl solution): XRPD pattern
- Crystal modification after 72 hours vibration (DSC/XRPD/TG) ([4]; Acetonitrile, N—no, Y—yes): N, no form change
- Crystal modification after 72 hours vibration (DSC/XRPD/TG) ([4]; Ethanol, N—no, Y—yes): N, no form change
- Crystal modification after 72 hours vibration (DSC/XRPD/TG) ([4]; Ethyl acetate, N—no, Y—yes): N, no form change
- Crystal modification after 72 hours vibration (DSC/XRPD/TG) ([4]; Iso Propanol, N—no, Y—yes): N, no form change
- Crystal modification after 72 hours vibration (DSC/XRPD/TG) ([4]; Water): Dissociated to free
- Final pH of slurry ([4]; Water): Final pH 1.26
- Crystal modification after 72 hours vibration (DSC/XRPD/TG) ([4]; pH 3 buffer): Dissociated to free
- Final pH of slurry ([4]; pH 3 buffer): Final pH 2.00
- Crystal modification after 72 hours vibration (DSC/XRPD/TG) ([4]; pH 6.8 buffer): Dissociated to free
- Final pH of slurry ([4]; pH 6.8 buffer): Final pH 1.82
- Bulk (XRPD): change ([5]; Solid state, 2 week 50° C., tight container): No
- Bulk (XRPD): change ([5]; Solid state, 2 week 50° C./75% r.h., footnote: new peak in the XRPD pattern compared with unstressed diphosphate): No
- Bulk (DSC): change ([5]; Solid state, 2 week 80° C., tight container): No
- Bulk (XRPD): change ([5]; Solid state, 2 week 80° C./75% r.h., footnote: pattern similar to that of phosphate, with one extra peak): No
- Bulk (XRPD): change ([5]; Xenon light (approx. 1200 kLuxh)): No
- CL ([6]; 0.2% solutions or suspensions, 2 week 50° C., Acetonitrile/Water (50:50), clear solution after stress test (*)): A *
- CL ([6]; 0.2% solutions or suspensions, 2 week 50° C., Acetonitrile, clear solution after stress test (*)): A *
- CL ([6]; 0.2% solutions or suspensions, 2 week 50° C., Methanol, clear solution after stress test (*)): A *
- CL ([6]; 0.2% solutions or suspensions, 2 week 50° C., Water, suspension (↓)): A ↓
- CL ([6]; 2% (or 5%) solutions or suspensions, 1 day room temperature, 0.5% CMC, suspension (↓)): A ↓
- CL ([6]; 2% (or 5%) solutions or suspensions, 1 day room temperature, HPMC Cellulose 4000 0.5%, suspension (↓)): A ↓
- CL ([6]; 2% (or 5%) solutions or suspensions, 1 day room temperature, Tween 80, 0.8%, suspension (↓)): A ↓
- Cmax (in vivo; Cmax, individual rats): 1900 ng/mL
- tmax (in vivo; mean tmax): 2.3 h
- Bulk corrosivity [7]: No visible change
- XRPD after DVS test [8]: No change
- DVS Desorp. Weight % chg. ([8]; RH 0.0%): 1.007%
- DVS Sorp. Weight % chg. ([8]; RH 0.0%): 0.000%
- DVS Desorp. Weight % chg. ([8]; RH 25.0%): 1.256%
- DVS Sorp. Weight % chg. ([8]; RH 25.0%): 1.232%
- DVS Desorp. Weight % chg. ([8]; RH 50.0%): 1.495%
- DVS Sorp. Weight % chg. ([8]; RH 50.0%): 1.455%
- DVS Desorp. Weight % chg. ([8]; RH 75.0%): 1.716%
- DVS Sorp. Weight % chg. ([8]; RH 75.0%): 1.634%
- DVS Desorp. Weight % chg. ([8]; RH 95.0%): 2.330%
- DVS Sorp. Weight % chg. ([8]; RH 95.0%): 2.330%
- Thermogravimetry (weight loss in %) ([9]; Heating rate 10° C./min): 1.89% at 150 °C
- Loss on drying by TGA (%) ([9]; Hygroscopicity, as is): 1.89 at 150 °C %
- DP [%] ([10]; 0.2% solutions or suspensions, 2 week 50° C., Acetonitrile): 0.44%
- DP [%] ([10]; 0.2% solutions or suspensions, 2 week 50° C., Acetonitrile/Water (50:50)): 0.80%
- DP [%] ([10]; 0.2% solutions or suspensions, 2 week 50° C., Methanol): 0.68%
- DP [%] ([10]; 0.2% solutions or suspensions, 2 week 50° C., Water): 0.41%
- DP [%] ([10]; 2% (or 5%) solutions or suspensions, 1 day room temperature, 0.5% CMC): 0.45%
- DP [%] ([10]; 2% (or 5%) solutions or suspensions, 1 day room temperature, HPMC Cellulose 4000 0.5%): 0.47%
- DP [%] ([10]; 2% (or 5%) solutions or suspensions, 1 day room temperature, Tween 80, 0.8%): 0.43%
- DP [%] ([10]; 2 weeks 50° C., tight container, 1% in mixture 1 (Lactose/maize starch/Aerosil/Magnesiumstearate)): 0.41%
- DP [%] ([10]; 2 weeks 50° C., tight container, 1% in mixture 2 (Mannitol/Avicel PH 102/Cutina HR)): 0.44%
- DP [%] ([10]; 2 weeks 50° C./75% r.h., 1% in mixture 1): 0.70%
- DP [%] ([10]; 2 weeks 50° C./75% r.h., 1% in mixture 2): 0.41%
- DP [%] ([10]; Solid state, 2 week 50° C., tight container, Bulk (HPLC)): 0.40%
- DP [%] ([10]; Solid state, 2 week 50° C./75% r.h., Bulk (HPLC)): 0.42%
- DP [%] ([10]; Solid state, 2 week 80° C., tight container, Bulk (HPLC)): 0.43%
- DP [%] ([10]; Solid state, 2 week 80° C./75% r.h., Bulk (HPLC)): 1.34%
- DP [%] ([10]; Unstressed drug substance, bulk): 0.42%
- DP [%] ([10]; Xenon light (approx. 1200 kLuxh), Bulk (HPLC)): 1.1%
